In patent US20240116885A1, “BENZOTHIAZOLE AND QUINOLINE DERIVATIVES AND THEIR USE” (Shanghai Yao Yuan Biotechnology Co., Ltd., priority 2020, published 2024):
Structures can show the parent of a compound that is named as a salt.

What was measured:
[1] = target: ALPK1 (Homo sapiens (Human), UniProt Q96QP1); assay: ALPK1 in vitro kinase assay (HTRF, TIFA phosphorylation); format: biochemical; conditions: ADP-Heptose activated ALPK1
Description: ALPK1 kinase activity was measured in an in vitro assay using ADP-Heptose as the ALPK1 ligand and activator of its kinase activity and TIFA protein as the ALPK1 phosphorylation substrate. Since phosphorylated TIFA proteins oligomerize, Homogeneous Time-Resolved Fluorescence (HTRF) was used to measure protein:protein interaction between HA-tagged TIFA proteins as an indicator of TIFA phosphorylation.
In brief, dose-response studies were performed with HEK293 cells cultured in Dulbecco's Modified Eagle Medium (DMEM) supplemented 10% fetal bovine serum (FBS, Hyclone™) containing antibiotics (pen/strep, G418) in 384-well assay plates. Each well contained 0.1 mg TIFA, ALPK1 (2 nM final concentration in reaction mixture) and kinase buffer (100 mM of HEPES pH 7.4, 4 mM DTT, 40 mM MgCl2, 20 mM of β-Glycerol phosphate disodium salt, 0.4 mM of Na3VO4, 0.16 mg/mL). Titrations of the test compounds were prepared in dimethylsulphoxide (DMSO). The reaction was initiated by addition of ATP and ADP-Heptose.
For HTRF, samples were incubated with a Tb cryptate-labeled anti-HA antibody for capturing HA-tagged proteins according to the manufacturer's instructions (PerkinElmer™, CisBio™) and the fluorescence signal was quantified (Tecan Infinite F NANO+). HTRF signals were calculated as the HTRF ratio (ratio of fluorescence measured at 665 nm and 620 nm)×104 (thereby using the signal at 620 nm as an internal standard).
IC50 values were determined using 3- or 4-parameter logistic equation using GraphPad Prism version 6.00. The reference compound, A027, was used as a positive control for each plate.

[2] = target: T237M hALPK1 mutant (Homo sapiens (Human), UniProt Q96QP1, T237M); assay: Inhibition of IL-8 secretion in HEK293 cells (A2) stably expressing T237M hALPK1 mutant; format: cell-based; conditions: 40 hours with compound, IL-8 ELISA, relative to wild-type HEK293 cells, read-out: Half maximal inhibitory concentration (IC50) of IL-8 secretion in cells expressing T237M mutant
From the text: (§1) Activating mutations in ALPK1 are associated with diseases and disorders such as cancer, spiroandenoma, spiroandenocarcinoma, ROSAH syndrome, and PFAPA syndrome. We conducted further experiments to evaluate the ability of representative compounds to inhibit ALPK1 in the context of two activating mutations, T237M and V1092A. In preliminary experiments we determined that IL-8 protein secretion was elevated in cells transiently transfected with human ALPK1 expression vectors containing each of these activating mutations. Accordingly, we used IL-8 secretion as an indicator of activated ALPK1 inhibition in cells expressing these mutations.
(§2) HEK293 cells were cultured as described above prior to transient transfection with either empty vector or an expression vector encoding (i) human ALPK1 (hALPK1), (ii) hALPK1 with the T237M activating mutation (hALPK1-T237M) (iii) hALPK1 with the V1092A activating mutation (hALPK1-V1092A), or (iv) a kinase dead ALPK1 mutant (hALPK1-T237M-D1194S). Transfection was performed according to manufacturer's protocols (Lipofectamine™ 3000, ThermoFisher). Transfected cells were selected, seeded onto 96-well plates and treated with serial dilutions of the test compounds for 6.5 hr. Following treatment, cell viability was determined using a luminescent cell viability assay (Cell Counting-Lite Assay or “CCL Assay” from Vazyme Biotech Co., Ltd.) and cell free supernatants were collected and analyzed for IL-8 protein by IL-8 ELISA as described above. […] As shown in the figure, very little IL-8 was detectable in cells transfected with any of the empty vector, hALPK1, or the kinase dead hALPK1 mutant. In contrast, both of the activating mutations in hALPK1 induced significant IL-8 secretion.
Next, we tested a representative set of compounds for inhibition of IL-8 secretion in cells expressing each of the activating ALPK1 mutants, T237M and V1092A. […] For the T237M mutant study, we produced an HEK293 cell line (“A2”) stably expressing the T237M hALPK1 mutant. A2 cells were cultured in the presence of test compound for 40 hours total. Fresh medium and compound were added at 24 hours. Cell viability and IL-8 secretion were determined 16 hours after the second addition of compound, using the CCL assay and IL-8 ELISA as described above.

[3] = system: ALPK1-dependent NFκB reporter gene activation; assay: NFκB gene reporter alkaline phosphatase assay in HEK293 G9 cells; format: cell-based; conditions: Homo sapiens; HEK293 G9 cells stimulated with D-glycero-D-manno-6-fluoro-heptose-1β-S-ADP
Description: An alkaline phosphatase reporter assay system was used to measure inhibition of ALPK1-dependent NFκB reporter gene activation. Briefly, HEK293 cells stably expressing an NF-kB reporter (referred to herein as “G9 cells”) were maintained in DMEM as described above. For the assay, cells were seeded into 96-well plates at a density of 10,000 cells/well in Freestyle™ 293 Expression Medium (ThermoFisher), and allowed to attach overnight. Cells were pretreated with serially diluted compounds for 30 min and then stimulated with D-glycero-D-manno-6-fluoro-heptose-1β-S-ADP. […] NFkB gene activation was detected using the chromogenic substrate, para-nitrophenyl phosphate (pNPP) according to the manufacturer's protocols (pNPP Phosphatase Assay, Beyotime Biotechnology).

[4] = target: hALPK1-V1092A (Homo sapiens (Human), UniProt Q96QP1, V1092A); assay: Inhibition of IL-8 secretion in HEK293 cells transiently transfected with hALPK1-V1092A; format: cell-based; conditions: transient transfection, 24 hours with compound, IL-8 ELISA, relative to wild-type HEK293 cells; read-out: Half maximal inhibitory concentration (IC50) of IL-8 secretion in cells expressing V1092A mutant
From the text: as §1, §2
For the V1092A mutant study shown in Table 4, HEK293 cells were transiently transfected with hALPK1-V1092A or hALPK1 (wildtype) expression vectors and then treated with test compounds for 24 hours. Fresh medium and compound were added at 18 hours.

[5] = system: Female MRL/MpJ-faslpr/J mice; assay: Efficacy study in SLE animal model; format: in vivo, mouse; conditions: 50 mg/kg PO QD
Description: A mouse model of systemic lupus erythematosus (SLE) was used to evaluate the ability of ALPK1 inhibitors to treat this condition. Female MRL/MpJ-faslpr/J mice were treated with test compound (T007) for 9 weeks. At about 13 weeks of age (study day 0), female mice were randomized into two treatment groups of 10 mice per group, and daily (QD) oral (PO) treatment with vehicle (5% PEG400, 95% methylcellulose [MC]) or the test compound, T007 (50 mg/kg) was initiated. The animals were euthanized for necropsy and tissue collection at age 22 weeks.

[6] = system: SD rat; assay: Efficacy study in sepsis induced acute kidney injury animal model (cecal ligation and puncture); format: in vivo; conditions: 20 mg/kg 2 hours prior to surgery, 24 hours post-surgery
From the text: Polymicrobial sepsis induced by cecal ligation and puncture (CLP) is the most frequently used model because it closely resembles the progression and characteristics of human sepsis. We used this model system to evaluate the effects of the compound T007 in sepsis. Briefly, the SD rat cecum was ligated with sterile silk thread, and then cecum was punctured twice with a needle, gently squeezed to express a small amount of fecal material, then the abdominal incision was closed. The test compound, T007 (20 mg/kg) was administered 2 hours prior to the surgery. 24 hours post-surgery, survival was recorded, plasma was collected for MCP-1 analysis, and kidneys were collected for gene expression analysis by Q-PCR.

[7] = kidney histopathology (right kidneys), vs vehicle

T237M hALPK1 mutant, sequence (Q96QP1 whole entry T237M): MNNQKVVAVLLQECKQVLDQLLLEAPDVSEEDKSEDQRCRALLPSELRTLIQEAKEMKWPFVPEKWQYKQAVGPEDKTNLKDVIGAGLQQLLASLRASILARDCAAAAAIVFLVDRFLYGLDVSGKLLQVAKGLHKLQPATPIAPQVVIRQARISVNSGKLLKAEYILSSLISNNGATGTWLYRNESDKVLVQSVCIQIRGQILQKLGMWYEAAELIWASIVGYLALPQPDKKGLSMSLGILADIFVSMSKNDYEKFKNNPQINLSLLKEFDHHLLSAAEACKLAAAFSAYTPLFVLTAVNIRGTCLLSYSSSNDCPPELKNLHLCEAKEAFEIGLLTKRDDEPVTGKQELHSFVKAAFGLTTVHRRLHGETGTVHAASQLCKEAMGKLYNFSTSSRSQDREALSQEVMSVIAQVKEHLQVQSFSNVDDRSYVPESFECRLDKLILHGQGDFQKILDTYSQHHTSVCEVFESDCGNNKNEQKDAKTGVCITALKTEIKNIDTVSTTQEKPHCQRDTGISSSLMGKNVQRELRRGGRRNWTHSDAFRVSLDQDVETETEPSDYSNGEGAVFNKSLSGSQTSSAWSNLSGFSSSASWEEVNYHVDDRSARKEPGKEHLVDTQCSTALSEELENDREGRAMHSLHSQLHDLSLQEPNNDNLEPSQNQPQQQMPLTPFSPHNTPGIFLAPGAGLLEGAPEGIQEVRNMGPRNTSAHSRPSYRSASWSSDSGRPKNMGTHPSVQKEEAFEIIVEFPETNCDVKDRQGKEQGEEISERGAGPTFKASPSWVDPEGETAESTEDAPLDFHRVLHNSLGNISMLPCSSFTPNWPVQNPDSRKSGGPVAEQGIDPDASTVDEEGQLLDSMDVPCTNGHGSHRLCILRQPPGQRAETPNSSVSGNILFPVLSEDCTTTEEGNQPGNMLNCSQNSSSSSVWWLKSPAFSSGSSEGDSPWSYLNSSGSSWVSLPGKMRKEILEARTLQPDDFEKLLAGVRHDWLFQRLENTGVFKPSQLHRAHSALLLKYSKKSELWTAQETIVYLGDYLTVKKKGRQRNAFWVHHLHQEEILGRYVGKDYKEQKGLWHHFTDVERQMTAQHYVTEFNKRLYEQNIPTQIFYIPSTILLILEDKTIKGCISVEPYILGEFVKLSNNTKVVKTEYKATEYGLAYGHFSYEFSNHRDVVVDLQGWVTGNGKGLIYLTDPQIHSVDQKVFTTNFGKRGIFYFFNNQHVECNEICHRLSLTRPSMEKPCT
ALPK1, sequence (Q96QP1 whole entry): as the sequence (Q96QP1 whole entry T237M) above, with M237T counted along it
hALPK1-V1092A, sequence (Q96QP1 whole entry V1092A): as the sequence (Q96QP1 whole entry T237M) above, with M237T, V1092A counted along it

SMILES | IC50 [1] [nM] | IC50 [2] [nM] | IC50 [3] [nM] | IC50 [4] [nM] | Effects on SLE by proteinuria, serum anti-dsDNA antibody levels and kidney histopathology ([5]; age 13 to 22 weeks) | Urine protein score reduction in AUC ([5]; age 13 to 22 weeks, vs vehicle, p=0.100) [%] | Crescent scores reduction [5, 7] [%] | Glomerulus diameters reduction [5, 7] [%] | Protein cast scores reduction [5, 7] [%] | Urine protein scores reduction ([5]; mouse age 21 weeks, vs vehicle) [%] | Summed kidney scores reduction ([5]; vs vehicle) [%] | Survival rate [6] | Plasma MCP-1 concentration by ELISA ([6]; p<0.001 vs CLP-Vehicle) | Kidney proinflammatory gene expression (IL6, TNFa, IL-1b, CCl2, KC) by Q-PCR ([6]; p<0.05 vs CLP-Vehicle)
C#Cc1cccc2sc(NC(=O)c3c(F)cc(N4CCNC[C@@H]4C)cc3F)nc12 [Compound T054, (S)-N-(4-ethynylbenzo[d]thiazol-2-yl)-2,6-difluoro-4-(2-methylpiperazin-1-yl)benzamide] | 36 | 225 | 270 | 226 | – | – | – | – | – | – | – | – | – | –
C#Cc1cccc2sc(NC(=O)c3c(F)ccc(N4CCNCC4)c3F)nc12 [Compound T060, N-(4-ethynylbenzo[d]thiazol-2-yl)-2,6-difluoro-3-(piperazin-1-yl)benzamide] | 44 | 2140 | 1250 | 5380 | – | – | – | – | – | – | – | – | – | –
O=C(Nc1nc2c(Br)cccc2s1)c1c(F)cc(N2CCNCC2)cc1F [Compound T019, N-(4-bromobenzo[d]thiazol-2-yl)-2,6-difluoro-4-(piperazin-1-yl)benzamide hydrochloride] | 11 | 668 | 760 | 3170 | – | – | – | – | – | – | – | – | – | –
C#Cc1cc(F)cc2sc(NC(=O)c3c(F)ccc(N4CCNCC4)c3F)nc12 [Compound T064, N-(4-ethynyl-6-fluorobenzo[d]thiazol-2-yl)-2,6-difluoro-3-(piperazin-1-yl)benzamide] | 51 | 1690 | 1030 | – | – | – | – | – | – | – | – | – | – | –
C#Cc1cccc2sc(NC(=O)c3c(F)cc(N4CCN(C)CC4)cc3F)nc12 [Compound T047, N-(4-ethynylbenzo[d]thiazol-2-yl)-2,6-difluoro-4-(4-methylpiperazin-1-yl)benzamide] | 13 | 635 | 810 | 1810 | – | – | – | – | – | – | – | – | – | –
COc1cccc2sc(NC(=O)c3c(F)cc(N4CCNCC4)cc3F)nc12 [Compound T017, 2,6-difluoro-N-(4-methoxybenzo[d]thiazol-2-yl)-4-(piperazin-1-yl)benzamide hydrochloride] | 14 | 1470 | 690 | 5030 | – | – | – | – | – | – | – | – | – | –
C#Cc1cccc2sc(NC(=O)c3c(F)cc(N4CCNCC4)cc3F)nc12 [Compound T007, N-(4-ethynylbenzo[d]thiazol-2-yl)-2,6-difluoro-4-(piperazin-1-yl)benzamide] | 4 | 68.3 | 470 | 409 | statistically significant beneficial effects | 34 | 62 | 38 | 70 | 55 | 34 | improved the survival rate | improved | inhibited
